Test results: a melting point compilation (Tetko et al.; mined from patent text by program, amines drawn as free bases though some values may be those of a salt)

Row | SMILES | melting point [°C]
1 | CCOCC(=O)OCC(=O)C1(O)CCC2C3CC(C)C4=CC(=O)C=CC4(C)C3C(O)CC21C (centres undefined) | 229
2 | Cc1cc(SC(C)C)c(NC(=O)CN2CCN(CCSc3nc4ccccc4[nH]3)CC2)c(SC(C)C)n1 | 186 to 188
3 | COc1cc(C)c(C=CC(C)=CC=CC(C)=CC(=O)NC(C)C)c(C)c1C | 200
4 | O=C(Nc1ccc(OC(F)(F)F)cc1)NC1CCN(C(=O)CN2CCNCC2)CC1 | 111 to 122
5 | NS(=O)(=O)c1nc(Cl)cs1 | 137 to 142
6 | CNc1n[nH]c(=O)n1NC | 135 to 137
7 | CC(C)CC(NC(=O)C(C)NC(=O)C(CC(=O)N1CCOCC1)Cc1cccc2ccccc12)C(O)C(=O)OC(C)C (mixture of isomers) | 178 to 183
8 | CC(C)(C)C(=O)OCCc1c(-c2ccccc2)nc(N)n2ncnc12 | 160
9 | CCS(=O)(=O)c1cc2c(O)cccc2o1 | 145 to 147
10 | C#CCc1c(C)nc2c(NCc3c(C)cccc3NC(=O)CO)cccn12 | 195 to 196
11 | COc1cccc(-n2cccn2)c1C#N | 93 to 94
12 | N#CN=C(NCCSCc1ccccn1)NCCSCc1ccccn1 | 78 to 80
13 | Cn1cc(C2CCN(CCn3cnc4ccccc4c3=O)CC2)c2ccccc21 | 78
14 | O=C1CNC(c2ccc(Cl)cc2)=NN1 | > 260
15 | CC1(C)OC(=O)Nc2ccc(/C=C/C(N)=O)cc21 | 196 to 198
16 | CCOP(=S)(OCC)SC(=CC(=O)c1cccc(Br)c1)C(=O)O | 107 to 111
17 | CC(=O)c1cn2c3c(cccc13)CCC2 | 106 to 108
18 | CC(C)(C)C1OC1C(O)c1ccccc1 (centres undefined) | 57 to 59
19 | COc1ccc2c(ccn2Cc2ccccc2Br)n1 | 86 to 87
20 | COc1ccc(OCc2ccccc2)cc1CBr | 88 to 90
21 | CCC(Br)C(=O)c1ccc(OC)c(OC(F)F)c1 (centres undefined) | 105
22 | NC(=O)c1sc2nc(N3CCC(NCC(O)c4cccnc4)CC3)cc(C(F)(F)F)c2c1N (centres undefined) | 179 to 181
23 | CS(=O)(=O)NCCS(=O)(=O)N1CCN(S(=O)(=O)c2ccc(-c3ccc(C(F)(F)F)cc3)s2)[C@@H](C(=O)NO)C1 | 105 to 108
24 | O=C(O)c1ccc(NCCOc2ccc(F)cc2)cc1 | 209 to 210
25 | CCOC(=O)Nc1ccc2ccccc2c1 | 69 to 70.5
26 | COc1ccc(-c2ccc(C(=N)NO)cc2)cc1-c1nc2cc(C(=N)NO)ccc2[nH]1 | > 340

Row | SMILES | melting point [°C]
27 | CC(C)N(C(N)=O)c1ccc2c(c1)OCO2 | 116 to 119
28 | O=C1NCc2c1cc1ccc3c(c1c2-c1cccnc1)OCO3 | 257 to 260
29 | CCCc1oc(C)cc(=O)c1C(=O)Nc1cccc(C)c1C | 133 to 135
30 | Cc1nn(C)c(OCC(=O)C(C)(C)C)c1C(=O)c1ccc(Cl)cc1Cl | 104 to 105
31 | O=C1Nc2c(Br)cc(Br)c3cccc1c23 | 259 to 260
32 | O=[N+]([O-])c1cc(-c2cn3ncsc3n2)cc(O)c1O | 278 to 280
33 | Cc1cc2c(s1)Oc1cccc(C)c1N=C2N1CCN(C)CC1 | 114 to 117
34 | COc1ccccc1-c1ccccc1C#N | 54 to 55
35 | CC=CCN1C(=O)c2ccccc2Oc2ncccc21 | 79 to 81
36 | CC1CCCN1CCCN1C(=C(C#N)C#N)N(CCN2CCCCC2)c2ccccc21 (centres undefined) | 85 to 86
37 | CC(=O)Nc1ccc2ccn(C3CCN(CCc4ccc(F)cc4)CC3)c2c1 | 195 to 196
38 | CCOC(=O)c1cccc(C2(C(N)=O)C(=O)N(CC(=O)N(c3ccccc3)C(C)C)c3ccccc3N(c3ccccc3)C2=O)c1 (centres undefined) | 187 to 188
39 | CCCCOC(=O)c1cccc(I)c1C(=O)NC(C)(C)CS(C)=O (centres undefined) | 57.5 to 66.3
40 | CC(=O)Nc1ccc(/C=C/C(=O)NCC(=O)N(C)c2ccc(C)c(CCl)c2C)cn1 | 218 to 220
41 | Cc1[nH]c(=O)c(C#N)cc1-c1ccc(OCCCC(=O)O)cc1 | 247 to 249
42 | Cc1oc(-c2cccs2)nc1COc1ccc(CON=C(CCCCC(=O)O)c2ccccc2)cc1 | 101 to 102
43 | COC(=O)c1ccsc1COc1ccc(CCCCO)cc1 | 58 to 60
44 | O=C(CC1CCN(Cc2ccccc2)CC1)c1ccc(O)cc1 | 197 to 198
45 | CC(=O)C=C(C)Nc1ccccc1C#N | 100
46 | CCC1CCCCN1C(=O)C=Cc1c(-c2ccncc2)nn2ccccc12 (centres undefined) | 150 to 153
47 | C=Cn1cc(C(=O)O)c(=O)c2cc(F)c(N3CCN(C)CC3)cc21 | 242
48 | COCCc1nc2c(N)nc3ccc(OCc4ccccc4)cc3c2n1C | 192 to 194
49 | Cc1ccc(-c2nc(CCCCCCSC(C)(C)C(=O)O)c(C)o2)cc1 | 111
50 | CC(Oc1ccc2nc(NC(=O)NCCN3CCOCC3)sc2c1)c1c(Cl)cccc1Cl (centres undefined) | 165 to 168
51 | CCc1cc2c(cc1OC)C(CN1CCC(c3noc4cc(F)ccc34)CC1)=C2 | 92 to 97
52 | CN(C)S(=O)(=O)c1ccc(N2CC(CO)OC2=O)cc1 (centres undefined) | 174 to 176

Row | SMILES | melting point [°C]
53 | OC1CC(NCc2ccccc2)c2ccccc21 (centres undefined) | 125 to 127
54 | COC(=O)c1cscc1O | 40 to 43
55 | CCOC(=O)c1ccc(-c2ccc(OCCCCCCCCCCCCBr)cc2)cc1 | 88.6 to 90.5
56 | O=C(O)CCCNC(=O)c1cc(Cl)ccc1O | 136 to 140
57 | O=C(O)Cc1ccc(C(=O)c2cccs2)cc1 | 126 to 129
58 | NC(=O)C(F)(F)C(F)(F)C(F)(F)C(F)(F)C(F)(F)C(F)(F)C(F)(F)F | 136 to 137
59 | COc1ccc2cc(C(C)COS(N)(=O)=O)ccc2c1 (centres undefined) | 112 to 115
60 | COC(=O)NNC(=O)Nc1ccccc1 | 154 to 155
61 | CC(C)C(C(=O)O)c1ccc(OCCNC(=O)C2Cc3ccccc3N2S(=O)(=O)c2ccc(-c3cc(C(F)(F)F)ccc3Cl)cc2)cc1 (centres undefined) | 84 to 88
62 | COc1ccc2c(c1)CCC1C2=CCC2(C)C(OC(C)(C)C)CCC12 (single isomer, unassigned; (+)) | 131 to 132
63 | CC(C(N)=O)N1CCN(c2ccccn2)CC1 (centres undefined) | 130 to 132
64 | Cc1cc(N=C2NCCN2)cc(NS(C)(=O)=O)c1C | 254 to 255
65 | CC1(C)CCC(C)(C)c2cc(-c3cc(-c4ccc(C(=O)O)cc4)ccc3-c3ccccc3O)ccc21 | 161 to 163
66 | O=C1C=CC(=O)N1c1cccc(I)c1 | 154 to 155
67 | CCCN(C=Cc1ccc([N+](=O)[O-])c2[nH]ncc12)CCC | 166 to 167
68 | CC(=O)SCC(C)C(=O)N(CC(=O)O)C1CCCCC1 (centres undefined) | 142 to 144
69 | Fc1ccc(N2CCC(NCc3ccn4c(CC5CC5)nnc4c3C(F)(F)F)CC2)c(F)c1 | 118
70 | CCN1CCc2c(Br)ccc([N+](=O)[O-])c2C1 | 52 to 53
71 | CCCCCCCCCCCCCCCCCC1OC1C (centres undefined) | 40
72 | CCc1cc(Br)c2c(=O)oc(=O)[nH]c2c1 | 236 to 237
73 | Cc1nc(-n2ccc(OCc3ccccc3)cc2=O)[nH]c1C(=O)NCc1ccccc1 | 183 to 184
74 | COc1cc(/C=C/C=O)c([N+](=O)[O-])cc1OC | 103 to 105
75 | COc1ccc(OCC(C)Oc2ccc(OC)cc2)cc1 (centres undefined) | 84 to 84.5
76 | C=CCc1c(OCc2ccccc2)ccc2c(=O)ccoc12 | 90 to 92
77 | CCCCNCc1ccc2cc(OC)ccc2c1 | 55 to 80
78 | COCc1ccc(-c2ccc3nnn(Cc4ccc5ncccc5c4)c3n2)cc1F | 200 to 201

Row | SMILES | melting point [°C]
79 | C=CCOc1ccccc1OCC(O)CNC1CCc2ccccc2C1 (centres undefined) | 98 to 100
80 | NS(=O)(=O)c1nc(-c2ccccc2F)ns1 | 177 to 179
81 | O=C(Nc1nc(C(F)(F)F)c(I)s1)c1c(Cl)cccc1Cl | 157 to 159
82 | COc1ccc(COC(=O)NCCc2c[nH]c3ccccc23)cc1 | 108 to 109
83 | CNC(=O)c1cc(-c2ccc(-c3ccco3)cc2)n(-c2ccc(S(C)(=O)=O)c(F)c2)n1 | 196 to 198
84 | N#CC1(N)CC2(OC(c3ccccc3)C(c3ccccc3)O2)C2C1C2(F)C(N)=O (centres undefined) | 197
85 | CNC(=O)CCSSCCC(=O)NC | 113 to 115
86 | O=S(=O)(Nc1ccc2c(OCc3ccc(-c4ccc(F)cc4)cc3)cccc2c1)C(F)(F)F | 139 to 140
87 | CCCc1c(O[C@@H]2CCC[C@H](Sc3ccc(C(=O)CCC(=O)O)cc3)C2)ccc(C(C)=O)c1O (relative stereo) | 101 to 103
88 | Cc1nc(-c2ccccc2)cc(-c2cccc([N+](=O)[O-])c2)c1CBr | 155 to 157
89 | CN1C(C)(C)CC(NC(=O)c2ccc(-c3nc4ccc(Cl)cc4[nH]3)cc2)CC1(C)C | > 250
90 | Cn1c(C(F)(F)F)cc(=O)n(-c2cc(OS(C)(=O)=O)c(Cl)cc2F)c1=O | 176 to 178
91 | O=C(CC1C(=O)CCc2ccccc21)c1ccccc1 (centres undefined) | 48 to 52
92 | O=C(O)c1ccc2oc(-c3ccccc3)cc(=O)c2c1 | 281 to 283
93 | O=C(O)c1ccc2c(c1)CCN2Cc1cccc([N+](=O)[O-])c1 | 259 to 262
94 | Cc1cc([N+](=O)[O-])cnc1CCCC#N | 51.5 to 53
95 | Cc1nnc(C=Cc2ccccc2OCC(O)CNC(C)(C)C)s1 (centres undefined) | 110 to 112
96 | COC(=O)C[C@@H]1CCC/C1=C\Cc1c(O)c2c(c(C)c1OC)COC2=O | 72 to 74
97 | Oc1cccc(-c2nn(C3CCCC3)c3c(Cl)cccc23)c1F | 150 to 151
98 | CN(Cc1cc2cc(Cl)ccc2o1)C1CCN(c2ccc(OC[C@@]3(C)Cn4cc([N+](=O)[O-])nc4O3)cc2)CC1 | 207 to 210
99 | Oc1ccc(-c2cccnc2)cc1O | 288 to 290
100 | COc1ccc(C(=O)CCCCCl)cc1S(=O)(=O)NC(C)C | 122 to 124
101 | O=C(O)CCCCc1nn(-c2cccc(C(F)(F)F)c2)c2c1CCCC2 | 105
102 | CCC(I)CCCC(F)(F)C(F)(F)C(F)(F)C(F)(F)C(F)(F)C(F)(F)C(F)(F)C(F)(F)F (centres undefined) | 46 to 47
103 | CC(=O)N1CN(C(=O)c2c(F)cccc2F)C(=O)N(c2ccc(Cl)cc2)C1 | 171 to 172
104 | Cc1oc(-c2ccccc2)nc1/C=C/c1ccc(C=O)cc1 | 158 to 159
